Here are results for 23 molecules from patent US8658639B2, “N-substituted-cyclic amino derivative” (Dainippon Sumitomo Pharma Co., Ltd, priority 2009, dated 2014).

Data set [1] has as its system abdominal skin of CD male rats. The experiment in a line: Testing for irritation by single subcutaneous administration to rats. In kind it is in vivo. Also on record: key: — No inflammation; Amount of Inflammation: * < ** < *** < ****; Amount of Inflammation: * < ** < *** < ****; Amount of Inflammation: * < ** < *** < ****; Amount of Inflammation: * < ** < *** < ****. The conditions noted are these: single subcutaneous administration 0.1 ml, 2% in DMSO and saline. As for the experimental part: Experiment 2: Testing for Irritation by Single Subcutaneous Administration to Rats
A test compound was measured and dissolved in DMSO and a saline solution in a concentration of 2%.

For the next data set, the target named is T1, Recombinant human renin (Homo sapiens, UniProt P00797).
T1 sequence (P00797 67-406): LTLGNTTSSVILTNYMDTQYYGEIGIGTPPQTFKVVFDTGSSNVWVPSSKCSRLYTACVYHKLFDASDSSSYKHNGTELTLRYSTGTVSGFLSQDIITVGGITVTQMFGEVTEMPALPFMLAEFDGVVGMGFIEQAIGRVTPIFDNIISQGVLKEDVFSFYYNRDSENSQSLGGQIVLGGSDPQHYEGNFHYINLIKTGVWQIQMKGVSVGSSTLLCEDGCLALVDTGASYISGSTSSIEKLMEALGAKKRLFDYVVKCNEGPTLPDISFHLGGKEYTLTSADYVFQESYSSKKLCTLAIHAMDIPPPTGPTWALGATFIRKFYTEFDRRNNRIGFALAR
The experiment in a line: In vitro renin inhibitory activity assay. Format: biochemical. The conditions noted are these: recombinant human renin 4.2 ng/mL, substrate 4 μM, 37° C., one hour, pH 7.4. The procedure:
Experiment 1: In Vitro Renin Inhibitory Activity Assay
Recombinant human renin (4.2 ng/mL) was reacted in 0.1M HEPES buffer (pH 7.4) containing 0.1M NaCl, 1 mM EDTA and 0.1 mg/mL BSA together with a substrate and a test compound at 37° C. for one hour. As the substrate, Arg-Glu(EDANS)-Ile-His-Pro-Phe-His-Leu-Val-Ile-His-Thr-Lys(DABCYL)-Arg (SEQ ID NO: 1) or DABCYL-γ-Abu-Ile-His-Pro-Phe-His-Leu-Val-Ile-His-Thr-EDANS (SEQ ID NO: 2) was added in such an amount so that the final concentration thereof became 4 μM. The elevated fluorescence intensity at the exciting wavelength 340 nm and the fluorescence wavelength 500 nm was measured by a fluorescence plate reader. The concentration of a test compound to be needed to inhibit an enzyme activity in the presence of a test compound in several concentrations by 50% was calculated as an IC50 value. The test compounds were diluted in DMSO and used in this Experiment.

One may read the pIC50 as the negative decadic logarithm of the IC50, by convention in mol/L.

pIC50: −log10 of the molar value.

`CCC(=O)NCCN1C(=O)C(C)(C)Oc2cc(C(F)(F)F)c(C(=O)N(C(C)C)[C@@H]3CCCNC3)cc21.Cl` [Comparative Example 2, 2,2-dimethyl-3-oxo-N-[(3R)-3-piperidinyl]-4-[2-(propanoylamino)ethyl]-N-(2-propanyl)-7-(trifluoromethyl)-3,4-dihydro-2H-1,4-benzoxazine-6-carboxamide hydrochloride, reference compound]: in data set [1], the “Observation at Administration Site, One day after administration” value (from here on “Observation … One day after administration”) is on record as “****” and the “Observation at Administration Site, Three days after administration” value (shortened to “Observation … Three days after administration”) is given as “****”.
With `COCCCCN1C(=O)C(C)(C)Oc2cc(C(F)(F)F)c(C(=O)N(C(C)C)[C@@H]3CCCNC3)cc21.Cl` [Comparative Example 1, 4-(4-methoxybutyl)-2,2-dimethyl-3-oxo-N-[(3R)-3-piperidinyl]-N-(2-propanyl)-7-(trifluoromethyl)-3,4-dihydro-2H-1,4-benzoxazine-6-carboxamide hydrochloride, reference compound], in data set [1], the “Observation … One day after administration” value is “***” and the “Observation … Three days after administration” value is “****”.
For the molecule `CCC(=O)NCCN1C(=O)C2(CCC2)Oc2cc(C)c(C(=O)N(C(C)C)[C@@H]3CCCN(C(=O)OCc4oc(=O)oc4C)C3)cc21` [Example 81], the pIC50 on Recombinant human renin was 8.77. In data set [1], the “Observation … One day after administration” value is “**” and the “Observation … Three days after administration” value is “—”.
For `CCC(=O)NCCN1C(=O)C(C)(C)Oc2cc(C)c(C(=O)N(C(C)C)[C@@H]3CCCN(C(=O)O[C@H](C)OC(=O)C(C)C)C3)cc21` [Example 67] the same measures were 6.60, “**” and “—”.
For `CCC(=O)NCCN1C(=O)C2(CCC2)Oc2cc(C)c(C(=O)N(C(C)C)[C@@H]3CCCN(C(=O)O[C@H](C)OC(=O)C(C)C)C3)cc21` [Example 82] the same measures were 6.28, “**” and “—”.
For `CCC(=O)NCCN1C(=O)C2(CCC2)Oc2cc(C)c(C(=O)N(C(C)C)C3CCCN(C(=O)OC(C)OC(=O)c4ccc(C)cc4)C3)cc21` (stereo not shown) [Example 79, 1-{[(4-Methylphenyl)carbonyl]oxy}ethyl 3-[({7-methyl-3-oxo-4-[2-(propanoylamino)ethyl]-3,4-dihydrospiro[1,4-benzoxazine-2,1′-cyclobutan]-6-yl}carbonyl)(2-propanyl)amino]-1-piperidinecarboxylate] the same measures were 8.28, “***” and “***”.
Consider `CCC(=O)NCCN1C(=O)[C@](C)(COC)Oc2cc(C)c(C(=O)N(C(C)C)[C@@H]3CCCN(C(=O)O[C@H](C)OC(=O)C(C)C)C3)cc21` [Example 93], for which the pIC50 at Recombinant human renin is 5.72. In data set [1], the “Observation … One day after administration” value is “—” and the “Observation … Three days after administration” value is listed as “—”.
For `CCC(=O)NCCN1C(=O)C(C)(C)Oc2cc(C)c(C(=O)N(C(C)C)[C@@H]3CCCN(C(=O)OCc4oc(=O)oc4C)C3)cc21` [Example 2, (5-Methyl-2-oxo-1,3-dioxol-4-yl)methyl (3R)-3-[isopropyl({2,2,7-trimethyl-3-oxo-4-[2-(propionylamino)ethyl]-3,4-dihydro-2H-1,4-benzoxazin-6-yl}carbonyl)amino]piperidine-1-carboxylate], the negative logarithm of the IC50 (pIC50) on Recombinant human renin is 8.29. In data set [1], the “Observation … One day after administration” value was “—” and the “Observation … Three days after administration” value is reported as “—”.
As for `CCC(=O)NCCN1C(=O)C(C)(C)Oc2cc(C)c(C(=O)N(C(C)C)C3CCCN(C(=O)OC(C)OC(=O)C4CCOCC4)C3)cc21` (single isomer, unassigned) [Example 87], on Recombinant human renin, the pIC50 was 8.02. In data set [1], the “Observation … One day after administration” value was “—” and the “Observation … Three days after administration” value is listed as “—”.
For the molecule `CCC(=O)NCCN1C(=O)C(C)(C)Sc2cc(C(F)(F)F)c(C(=O)N(C(C)C)[C@@H]3CCCN(C(=O)OCc4oc(=O)oc4C)C3)cc21` [Example 30, (5-Methyl-2-oxo-1,3-dioxol-4-yl)methyl (3R)-3-[{[2,2-dimethyl-3-oxo-4-[2-(propionylamino)-ethyl]-7-(trifluoromethyl)-3,4-dihydro-2H-1,4-benzothiazin-6-yl]carbonyl}(isopropyl)amino]-piperidine-1-carboxylate], on Recombinant human renin, the negative logarithm of the IC50 (pIC50) is 8.66.
On the same count and under the same terms, with `CCC(=O)NCCN1C(=O)C(C)(C)Oc2cc(C)c(C(=O)N(C(C)C)[C@@H]3CCCN(C(=O)OC(C)OC(=O)CCCO)C3)cc21` (stereo partly drawn) [Example 63, 1-[(4-Hydroxybutanoyl)oxy]ethyl (3R)-3-[isopropyl({2,2,7-trimethyl-3-oxo-4-[2-(propionylamino)ethyl]-3,4-dihydro-2H-1,4-benzoxazin-6-yl}carbonyl)amino]piperidine-1-carboxylate] the figure was 9.02.
For `CCC(=O)NCCN1C(=O)C2(CCC2)Oc2cc(C)c(C(=O)N(C(C)C)C3CCCN(C(=O)OC(OC(=O)CC)C(C)C)C3)cc21` (stereo not shown) [Example 46], the negative logarithm of the IC50 (pIC50) on Recombinant human renin is 7.13.
Regarding `CCC(=O)NCCN1C(=O)C(C)(C)Oc2cc(C)c(C(=O)N(C(C)C)C3CCCN(C(=O)OC(OC(C)=O)C(C)C)C3)cc21` (stereo not shown) [Example 19], the pIC50 at Recombinant human renin is 7.96.
On the same count and under the same terms, with `CCC(=O)NCCN1C(=O)C(C)(C)Oc2cc(C)c(C(=O)N(C(C)C)[C@@H]3CCCN(C(=O)OC(C)(C)OC(C)=O)C3)cc21` [Example 21, 1-(Acetyloxy)-1-methylethyl (3R)-3-[isopropyl({2,2,7-trimethyl-3-oxo-4-[2-(propionylamino)ethyl]-3,4-dihydro-2H-1,4-benzoxazin-6-yl}carbonyl)amino]piperidine-1-carboxylate] the figure was 7.21; with `CCC(=O)NCCN1C(=O)C(C)(C)Oc2cc(C)c(C(=O)N(C(C)C)C3CCCN(C(=O)OC(OC(=O)CC)C(C)C)C3)cc21` (stereo not shown) [Example 20], 7.04.
Consider `CCC(=O)NCCN1C(=O)C(C)(C)Oc2cc(C)c(C(=O)N(C(C)C)C3CCCN(C(=O)OC(C)OC(=O)C4CCOCC4)C3)cc21` (single isomer, unassigned) [Example 88], for which the pIC50 at Recombinant human renin is 8.02.
Still for that read-out and setting: with `CCC(=O)NCCN1C(=O)C2(CCC2)Oc2cc(C)c(C(=O)N(C(C)C)C3CCCN(C(=O)OC(OC(=O)C(C)C)C(C)C)C3)cc21` (stereo not shown) [Example 45] the figure was 7.28; with `CCC(=O)NCCN1C(=O)C2(CCC2)Oc2cc(C)c(C(=O)N(C(C)C)C3CCCN(C(=O)OC(C)OC(=O)C4CCOCC4)C3)cc21` (stereo not shown) [Example 48], 6.47; with `CCC(=O)NCCN1C(=O)C2(CCC2)Oc2cc(C)c(C(=O)N(C(C)C)[C@@H]3CCCN(C(=O)OC(C)OC(=O)c4cccnc4)C3)cc21` (stereo partly drawn) [Example 89, 1-[({(3R)-3-[({7-Methyl-3-oxo-4-[2-(propanoylamino)ethyl]-3,4-dihydrospiro[1,4-benzoxazine-2,1′-cyclobutan]-6-yl}carbonyl)(2-propanyl)amino]-1-piperidinyl}carbonyl)oxy]ethyl 3-pyridine carboxylate], 8.72.
Regarding `CCC(=O)NCCN1C(=O)C(C)(C)Oc2cc(C)c(C(=O)N(C(C)C)[C@@H]3CCCN(C(=O)OCc4oc(=O)oc4-c4ccccc4)C3)cc21` [Example 7], on Recombinant human renin, the negative-log IC50 (pIC50) is 8.89.
The same measure, in the same setting: with `CCC(=O)NCCN1C(=O)C(C)(C)Oc2cc(C)c(C(=O)N(C(C)C)[C@@H]3CCCN(C(=O)OCOC(=O)OCC4CC4)C3)cc21` [Example 11] the figure was 6.34.
Still for that read-out and setting: with `CCC(=O)NCCN1C(=O)C(C)(C)Oc2cc(C)c(C(=O)N(C(C)C)[C@@H]3CCCN(C(=O)OCOC(=O)C(C)C)C3)cc21` [Example 4] the figure was 7.38.
For `CCC(=O)NCCN1C(=O)C2(CCC2)Oc2cc(C)c(C(=O)N(C(C)C)[C@@H]3CCCNC3)cc21.Cl` [Comparative Example 3, N-isopropyl-7-methyl-3-oxo-N-[(3R)-piperidin-3-yl]-4-[2-(propionylamino)ethyl]-3,4-dihydrospiro[1,4-benzoxazine-2,1′-cyclobutane]-6-carboxamide hydrochloride, reference compound], in data set [1], the “Observation … One day after administration” value is “****” and the “Observation … Three days after administration” value is recorded as “****”.
